By IC50 is commonly meant the concentration at which inhibition is half-maximal.

One assay deals with T1, CDK15/CycY (Homo sapiens, UniProt Q96Q40).
T1 construct: ICE Bioscience Inc. (assay service)
Description: CDK family panel, ADP-Glo. It counts as biochemical. In general terms: ADP-Glo first removes unused ATP, then detects ADP through luciferase.

In assay [1] the test system is phosphorylation of RNA polymerase II at Ser2. Description: Washout experiment, RNA polymerase II Ser2 phosphorylation (immunoblot). It counts as cell-based, human. The following applies: VCaP cells; YJZ5118 100 nM. As to the method: The previously reported reversible inhibitor 10 was included for comparison. VCaP cells were treated with the compounds for 6 h, after which the compounds were removed, and the cells were cultured in compound-free media for 5 days.
Generally, after incubation with the compounds for the indicated time, the tested cells were washed by cold PBS buffer (Gibco) and lysed with RIPA buffer (ThermoFisher Scientific) supplemented with cOmplete protease inhibitor cocktail tablets (Sigma-Aldrich). The cell lysate was treated with ultrasonic for 20s, following a centrifugation of 14000 rpm at 4°C for 10 min. The protein concentration was measured by BCA protein assay (DC Protein Assay, BIO-RAD). An equal amount of protein was loaded to 4–12% Bis-Tris gels and underwent SDS-PAGE electrophoresis at 120 V for 90 min. The proteins were transferred to a nitrocellulose (NC) membrane (Thermo Scientific) and the membranes were blocked in 5% milk buffer at room temperature for 1h, followed by incubating with primary antibody at the recommended dilution at 4°C for overnight. The membranes were washed by PBST for three times and incubated with anti-rabbit or anti-mouse HRP-conjugated secondary antibody for 1h at room temperature, after which the membranes were imaged by Odyssey CLx Imager (LiCOR Biosciences).
A general note: A western blot detects proteins with antibodies after separation by electrophoresis.

Another assay concerns CDK12. The arrangement: method as in PMID 30067358. Conditions: LANCE Ultra assay; read-out: reported IC50 CDK12; cited from earlier work. (In general: TR-FRET usually uses a lanthanide donor and a delayed reading to cut background.)
The test system of another assay is CDK13. The arrangement: method as in PMID 30067358. The following applies: LANCE Ultra assay; read-out: reported IC50 CDK13; cited from earlier work.

T1 sequence (Q96Q40 whole entry, species assumed): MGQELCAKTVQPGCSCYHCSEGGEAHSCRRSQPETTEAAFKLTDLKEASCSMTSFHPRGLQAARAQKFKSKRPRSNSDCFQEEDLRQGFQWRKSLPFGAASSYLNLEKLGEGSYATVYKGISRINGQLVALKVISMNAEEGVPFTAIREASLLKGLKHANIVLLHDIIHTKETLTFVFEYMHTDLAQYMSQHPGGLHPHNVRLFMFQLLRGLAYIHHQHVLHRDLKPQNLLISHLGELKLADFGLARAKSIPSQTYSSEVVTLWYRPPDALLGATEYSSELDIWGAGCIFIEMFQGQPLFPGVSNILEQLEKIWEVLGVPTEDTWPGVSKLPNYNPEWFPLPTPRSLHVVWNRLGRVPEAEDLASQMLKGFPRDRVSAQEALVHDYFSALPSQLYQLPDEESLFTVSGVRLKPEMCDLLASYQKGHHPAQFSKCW
T1 sequence (Q8ND76 whole entry partner, species assumed): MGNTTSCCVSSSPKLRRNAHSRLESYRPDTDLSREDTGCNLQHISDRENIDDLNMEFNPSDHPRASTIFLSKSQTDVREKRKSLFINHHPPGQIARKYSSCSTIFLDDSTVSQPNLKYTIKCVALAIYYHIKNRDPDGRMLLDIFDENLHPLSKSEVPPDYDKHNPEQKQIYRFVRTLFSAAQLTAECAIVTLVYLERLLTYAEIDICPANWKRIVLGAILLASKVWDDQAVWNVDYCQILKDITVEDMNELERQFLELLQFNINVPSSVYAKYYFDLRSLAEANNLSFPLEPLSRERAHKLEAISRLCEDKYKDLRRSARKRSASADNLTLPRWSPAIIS
Description for CDK15/CycY: All the kinase activity were performed using an ADP-Glo kinase assay by ICE Bioscience Inc. (Beijing, China).

Turning to `Cn1cc(-c2ccc(N(C(=O)NCc3ccccc3)[C@H]3CC[C@H](Nc4ccc(C#N)cn4)CC3)cc2)ccc1=O` [Compound 2, reference compound], the IC50 on CDK15/CycY is 3020 nM; with CDK12, 52 nM; with CDK13 it was 10 nM. The “RNA polymerase II Ser2 phosphorylation after washout” value in assay [1] is recorded as “recovery of phosphorylation at 4 h after washout”.

The values above are taken from article PMC12147761 (Journal of medicinal chemistry, 2025).
